Counter-ions that a name gives are not always drawn. Like-named read-outs stand apart in the source and are kept apart here.
Legend:
human thrombin = target: T1, human thrombin (Homo sapiens, UniProt P00734); assay: Measurement of inhibitory activity for thrombin (S-2238 chromogenic substrate); assay type: biochemical
T1 construct: human thrombin (Sigma Chemical Company); purchased Sigma Chemical Company
Experimental: (§1) Five µL of dimethylsulfoxide solution of test compound, 375 µL of tris-hydrochloric acid buffer (pH 8.4) and 100 µL of 1 mM S-2238 (Daiichi Pure Chemicals) aqueous solution were mixed. Then 20 µL of 2.0 U/mL human thrombin (Sigma Chemical Company) in gelatin-glycine buffer was added and the mixture was incubated for 10 minutes at 37 °C. The reaction was terminated with the addition of 100 µL of 60 % acetic acid and absorbance (405 nm) was measured.
The group without test compound was defined as control and the group without human thrombin was defined as blank. […]

[1] = target: T2, human activated blood coagulation factor X (Homo sapiens, UniProt P00742); assay: Measurement of inhibitory activity for activated blood coagulation factor X (S-2222 chromogenic substrate); assay type: biochemical
T2 construct: purchased Calbiochem Corporation
Experimental: as §1, with “S-2222” for “S-2238”, “0.6” for “2.0”, “activated blood coagulation factor X (Calbiochem Corporation)” for “thrombin (Sigma Chemical Company)”
The group without test compound was defined as control and the group without human activated blood coagulation factor X was defined as blank.

normal human plasma = assay: Measurement of anticoagulation effects (plasma prothrombin time); assay type: biochemical; settings: CT2: concentration that prolonged the clotting time (prothrombin time) of control by 2 times
Experimental: Two µL of dimethylsulfoxide solution of test compound which was put in the process tube was incubated at 37 °C, and 50 µL of normal human plasma (George King Bio-Medical Inc.) was mixed. One minute later, 100 µL of plasma prothrombin time reagent (Neoplastin Plus® , Boehringer Mannheim) was added into the mixture. Prothrombin time was measured with ST4 (Boehringer Mannheim).
The group without test compound was defined as control. The concentration of test compound that prolonged the clotting time of control by 2 times (CT2) was obtained and this value was used as the index of anticoagulation activity.

Male Wistar rats = assay: Acute toxicity test; assay type: in vivo; settings: 30 mg/kg, through tail vein (intravenous), groups of 5 rats, survival judged for 24 hours
Experimental: Male Wistar rats aged 7 weeks (SLC) were divided into several groups consisting of 5 rats. Test compound was dissolved at the concentration that became the administration volume of
2.5 mL/kg. The solution was administered through tail vein at an infusion rate of 1 mL/minute. Observations were performed at constant intervals, and survival rate was judged for 24 hours.

T2 sequence (P00742 235-488 limits assumed): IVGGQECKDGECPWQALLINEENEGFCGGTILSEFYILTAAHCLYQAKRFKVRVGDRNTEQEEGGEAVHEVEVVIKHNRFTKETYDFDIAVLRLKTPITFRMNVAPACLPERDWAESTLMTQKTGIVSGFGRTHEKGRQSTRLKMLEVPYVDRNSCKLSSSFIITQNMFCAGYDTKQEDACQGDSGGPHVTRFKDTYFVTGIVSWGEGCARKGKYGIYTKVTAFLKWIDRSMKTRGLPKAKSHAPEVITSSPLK
T2 sequence (P00742 41-179 partner limits assumed): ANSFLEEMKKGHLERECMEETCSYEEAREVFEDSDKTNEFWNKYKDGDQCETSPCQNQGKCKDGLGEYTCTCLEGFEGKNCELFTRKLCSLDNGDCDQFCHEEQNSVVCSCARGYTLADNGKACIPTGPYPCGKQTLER

Row | SMILES | IC50 (human thrombin; IC50, pH 8.4, 10 minutes at 37 °C, absorbance 405 nm, read-out: Inhibitory activity for thrombin) [nM] | IC50 ([1]; IC50, pH 8.4, 10 minutes at 37 °C, absorbance 405 nm, read-out: Inhibitory activity for activated blood coagulation factor X) [nM] | Anticoagulation effect (normal human plasma) [µM] | Death cases (Male Wistar rats) | Death cases (Male Wistar rats; listed as 5-amidino-2-hydroxy-N-[2-[4-[1-(1-iminoethyl)piperidin-4-yl]phenyl]ethyl]benzene) | IC50 (human thrombin) [nM] | IC50 [1] [nM]
1 | CC(C)c1ccc(CCNS(=O)(=O)c2cc(C(=N)N)ccc2O)cc1 [Compound 2, 5-Amidino-N-[2-(4-isopropylphenyl)ethyl]-2-hydroxybenzene-sulfonamide hydrochloride] | 101000 | 64 |  |  |  |  | 
2 | CC(=N)N1CCC(c2ccc(CCNS(=O)(=O)c3cc(C(=N)N)ccc3O)cc2)CC1 [Compound 8, 5-Amidino-2-hydroxy-N-[2-[4-[1-(1-iminoethyl)piperidin-4-yl]phenyl]ethyl]benzenesulfonamide dihydorchloride] |  |  | 0.21 | 0/5 | no death was observed | > 100000 | 87
3 | CC(=N)N1CC[C@H](Oc2ccc(CCNS(=O)(=O)c3cc(C(=N)N)ccc3O)cc2)C1 [Compound 9, (S)-5-Amidino-2-hydroxy-N-[2-[4-[1-(1-iminoethyl)pyrrolidin-3-yloxylphenyl]ethyl]benzenesulfonamidedihydrochloride] |  |  | 0.18 |  |  | > 100000 | 88
4 | CC(=N)N1CCC(Oc2ccc(CCNS(=O)(=O)c3cc(C(=N)N)ccc3O)cc2)CC1 [Compound 10, 5-Amidino-2-hvdroxv-N-[2-[4-[1-(1-iminoethyl)piperidin-4-yloxy]phenyl]ethyl]benzenesulfonamide dihydrochloride] |  |  | 0.22 |  |  | > 100000 | 110

Source: patent EP1174421A1, “3-AMIDINOBENZENESULFONAMIDE DERIVATIVES, MEDICINAL COMPOSITIONS CONTAINING THE SAME AND INT[…] THE PRODUCTION THEREOF” (Kissei Pharmaceutical Co., Ltd., priority 1999, dated 2000)
